According to patent US12685755B2, “Methods and compositions for treating mucosal tissue disorders” (The University of North Carolina at Chapel Hill, priority 2012, dated 2026):

Assays:
CB2 receptor = CB2 receptor (Homo sapiens, UniProt P34972); settings: cited from earlier work
[1] = tested on: Pseudomonas aeruginosa strain PAO1; experiment: nitrate dependent growth of PAO1 under anaerobic atmosphere; assay type: cell-based; settings: for inhibition of growth: anaerobic; for nitrate dependent growth: LB broth with nitrate, anaerobic atmosphere
Protocol: FIG. 1. […] Pseudomonas aeruginosa strain PAO1 is capable of growing in the absence of oxygen using nitrate for respiration. […] The studies presented in FIG. 1 examine whether glutathione influences the growth of PAO1 either in the presence or absence of nitrate under either ambient (aerobic) or anaerobic atmospheres. […]
FIG. 4. […] To examine this possibility, S-nitrosoglutathione (Sigma) was tested for influence on growth of PAO1 in TSBN (1% KNO3) with and without 6.4 mM glutathione.
(§1) FIG. 7. […] The next series of experiments was designed to determine if there were any influences of ascorbate on glutathione potentiation of the growth inhibition of the RNI (FIGS. 7, 8 and 9).

[2] = tested on: Pseudomonas aeruginosa strain PAO1; experiment: aerobic growth of PAO1 in broth in ambient atmosphere; assay type: cell-based; settings: for effects on aerobic growth attained by 17 h, single components: each alone: KNO2 to 3.5 mM, glutathione to 5 mM, ascorbate to 2.1 mM
Text: FIG. 1. […] Pseudomonas aeruginosa strain PAO1 is capable of growing in the absence of oxygen using nitrate for respiration. […] The studies presented in FIG. 1 examine whether glutathione influences the growth of PAO1 either in the presence or absence of nitrate under either ambient (aerobic) or anaerobic atmospheres.
(§2) FIG. 2. […] To test this possibility, reduced glutathione was titrated vs. increasing concentrations of KNO2 in either trypticase soy broth (TSB) in ambient atmosphere or in trypticase soy broth with nitrate (TSBN) (1% KNO3) under anaerobic atmosphere.
(§3) FIG. 3. […] These studies examined the question of the importance of the redox state of glutathione to its contributions to the inhibition by RNI and to the blocking of the glucose oxidase antimicrobial effects. Glutathione in either its reduced (GSH) or oxidized (GSSG) form was titrated in the presence or absence of 14 mM nitrite in TSB and PAO1 was grown in ambient atmosphere.
FIG. 6. […] If NO reacts with glutathione to generate nitrosoglutathione then gassing with NO in the presence of glutathione may be expected to yield greater activity than gassing first and then adding glutathione. To test this effect, LB broth was either pre-gassed with NO followed by titration of GSH or the LB broth aliquots containing various concentrations of GSH were gassed. Titration of NO was accomplished by varying the gassing times of the LB broth.
as §1
FIG. 8. […] Ascorbate was titrated over a checkerboard titration of glutathione and KNO2 in LB broth.
FIG. 9. […] In these experiments, varying concentrations of NO were achieved again by varying the gassing time (10, 15, 30 or 45 min) with 2.3% NO in N2 either in the presence (NO-GSH) or absence (NO-LB) of varying concentrations of glutathione. Glutathione was added to NO-LB in varying concentrations (NO-LB+GSH).

[3] = tested on: P. aeruginosa clinical isolate (C3873M)
Protocol: (§4) FIGS. 10A-B. Influences of bicarbonate on alginate production by different strains of P. aeruginosa under a 5% CO2 atmosphere. Alginate production of selected strains of P. aeruginosa surface grown in a CO2 incubator was quantitatively determined by a colorimetric assay. […] These three strains were then tested for their ability to make alginate under an atmosphere of 5% CO2 with increasing concentrations of NaHCO3(FIG. 10B).

[4] = tested on: Pa Mucoid laboratory derived from PAO1; settings: 5% CO2; increasing concentrations of NaHCO3
Protocol: as §4

PAO1 = settings: 5% CO2; increasing concentrations of NaHCO3
Protocol: as §4

[5] = tested on: Pseudomonas aeruginosa strain PAO1; experiment: glucose oxidase / H2O2 mediated growth inhibition of PAO1; assay type: cell-based
Text: as §2, §3

[6] = absence of NO, glutathione and ascorbate concentrations and combinations of the study

Chain of CB2 receptor (P34972 whole entry): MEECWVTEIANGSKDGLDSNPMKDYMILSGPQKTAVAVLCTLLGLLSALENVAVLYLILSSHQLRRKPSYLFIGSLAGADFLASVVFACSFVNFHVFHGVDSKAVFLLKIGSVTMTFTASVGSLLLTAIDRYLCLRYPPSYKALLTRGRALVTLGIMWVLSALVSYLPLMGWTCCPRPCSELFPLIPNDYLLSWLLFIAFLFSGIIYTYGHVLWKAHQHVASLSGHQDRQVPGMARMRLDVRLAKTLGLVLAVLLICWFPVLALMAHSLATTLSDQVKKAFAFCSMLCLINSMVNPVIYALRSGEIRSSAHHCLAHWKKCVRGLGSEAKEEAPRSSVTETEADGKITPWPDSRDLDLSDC

C=C1CC[C@@H]2[C@@H](C1)c1c(OC)cc(C(C)(C)CCCCCC)cc1OC2(C)C [L-759,656]
CB1/CB2 binding ratio (CB2 receptor): > 1000

N[C@@H](CCC(=O)N[C@@H](CSN=O)C(=O)NCC(=O)O)C(=O)O [GSNO, S-nitrosoglutathione, reference compound]
inhibition of growth, bacterial density (A=650 nm) at 18 h ([1]; GSNO titrated, TSBN (1% KNO3), without glutathione): concentration dependent inhibition

O=C1O[C@H]([C@@H](O)CO)C(O)=C1O [ascorbate, ascorbic acid]
inhibition of growth in ambient atmosphere ([2]; 0.2 mM ascorbate with 7.5 mM glutathione, presence of nitrate): profound inhibition of growth | inhibition of aerobic growth ([2]; 2.1 mM ascorbate with 7.5 mM glutathione, absence of nitrate): total inhibition | inhibitory effects on aerobic growth [2, 6]: no inhibitory effects | effect on inhibition by KNO2 with glutathione ([2]; ascorbate added to KNO2 and glutathione, LB broth): enhanced | effect on aerobic growth attained by 17 h ([2]; ascorbate added to either glutathione or KNO2, LB broth): no discernible effect | enhancement of inhibition of aerobic growth ([2]; ascorbate titrated, 15 min delivery of NO, 2.5 mM GSH): concentration dependent ascorbate enhancement of inhibition | effects on aerobic growth attained by 17 h, single components ([2]; LB broth): neither KNO2 to 3.5 mM, glutathione to 5 mM nor ascorbate to 2.1 mM had discernible effects | effect on glutathione reduction of aerobic growth ([2]; increasing concentrations of ascorbic acid added to glutathione, LB broth): further enhanced | decrease in nitrate-dependent growth ([1]; increasing ascorbate in the presence of 2.5 mM glutathione): more pronounced | nitrate-dependent growth ([1]; increasing concentrations of ascorbate, absence of glutathione): dose dependent decrease in nitrate-dependent growth

O=C(O)O [bicarbonate, NaHCO3]
alginate production ([3]; 5% CO2, increasing concentrations of NaHCO3): inhibited | alginate production associated with the mucoidy phenotype of P. aeruginosa ([3]; preliminary studies): inhibits the alginate production | alginate production [4]: significantly enhanced | alginate production (PAO1): failed to make alginate

O=N[O-].[K+] [nitrite, KNO2, reference compound]
inhibitory effects on aerobic growth ([2]; KNO2 in the presence of glutathione, LB broth): concentration dependent inhibitory effects | effects on aerobic growth attained by 17 h, single components ([2]; LB broth): neither KNO2 to 3.5 mM, glutathione to 5 mM nor ascorbate to 2.1 mM had discernible effects | lowest KNO2 concentration at which synergistic inhibition was evident ([2]; in the presence of 5 mM glutathione, ascorbate titrated, LB broth): 0.875 mM | inhibition of aerobic growth ([2]; nitrite to 14 mM, absence of glutathione, TSB): no discernible inhibition | inhibition of growth ([1]; KNO2 added, TSBN (1% KNO3), absence of glutathione): significant inhibition

N[C@@H](CCC(=O)N[C@@H](CS)C(=O)NCC(=O)O)C(=O)O [glutathione, N—(N-L-γ-glutamyl-L-cysteinyl)glycine]
inhibition of aerobic growth, glutathione with NO ([2]; 2.5 mM glutathione, NO titrated by gassing time, LB broth): dose dependent NO inhibition of growth | inhibition of aerobic growth ([2]; 5 mM glutathione and ascorbate, presence versus absence of nitrate): greater inhibition of aerobic growth | inhibition of aerobic growth, glutathione with NO ([2]; 5 mM glutathione, lowest concentration of NO (10 minutes gassing time), LB broth): total inhibition | inhibition of aerobic growth, glutathione with NO ([2]; 5 mM glutathione, lowest concentration of NO, regardless of order of addition): total inhibition of growth | inhibition of growth, glutathione with nitrite ([2]; 6.4 mM GSH and 14 mM KNO2, TSB, ambient atmosphere): significant inhibition | growth yield at 14 h ([2]; 7.5 mM glutathione, LB broth with or without 1% nitrate, aerobic): reduced growth yield | inhibition of growth, glutathione with nitrite ([2]; 12.8 mM GSH and 7 mM KNO2, TSB, ambient atmosphere): significant inhibition | inhibition of PAO1 growth in the presence of nitrite ([2]; 14 mM nitrite, TSB, ambient atmosphere, molar equivalency): inhibition of PAO1 growth | enhancement of NO gas inhibition of aerobic growth ([2]; 0.5 relative concentration of NO, TSB): dose dependent enhancement of inhibition | inhibitory effects on aerobic growth [2, 6]: no inhibitory effects | effects on aerobic growth attained by 17 h, single components ([2]; LB broth): neither KNO2 to 3.5 mM, glutathione to 5 mM nor ascorbate to 2.1 mM had discernible effects | aerobic growth attained ([2]; glutathione titrated, LB broth): dose dependent reduction in the aerobic growth | lowest glutathione concentration at which synergistic inhibition was evident ([2]; in the presence of 1.75 mM KNO2, ascorbate titrated, LB broth): 2.5 mM | enhancement of NO gas inhibition of aerobic growth ([2]; lower NO concentrations, TSB): not at lower NO concentrations | aerobic growth of P. aeruginosa ([2]; nitrite and nitric oxide in the presence of GSH): inhibit the aerobic growth of P. aeruginosa | growth yield ([2]; reduced glutathione titrated, TSB, absence of nitrite): slight, but significant, concentration-dependent increase in growth yield | growth inhibition of PAO1 by exogenous H2O2 ([5]; 14 mM GSH): blocked | protection from inhibition with the glucose oxidase system ([5]; TSB, ambient atmosphere): protected PAO1 from inhibition | protection from the growth inhibiting effects of glucose oxidase ([5]; increasing concentration of GSH): protected PAO1 | growth in an anaerobic atmosphere with nitrate ([1]; 2.5 mM and lower concentrations of glutathione, absence of ascorbate): permitted growth | nitrate dependent growth ([1]; 2.5 mM glutathione or less): no discernible effects | nitrate dependent growth ([1]; 5 mM glutathione): total inhibition | effect on GSNO inhibition of growth, bacterial density (A=650 nm) at 18 h ([1]; 6.4 mM glutathione with GSNO, TSBN (1% KNO3)): significantly enhanced | nitrate dependent growth ([1]; 7.5 mM glutathione): total inhibition | inhibition of growth ([1]; increasing GSH with nitrite concentrations not totally inhibitory by themselves, TSBN): further inhibition | use of nitrate, nitrite or nitric oxide for growth under anaerobic conditions ([1]; preliminary data, P. aeruginosa): limit the ability of P. aeruginosa to utilize nitrate, nitrite, or nitric oxide to grow under anaerobic conditions | anti-pseudomonal activities of GSNO and other nitric oxide donors ([1]; presence of exogenous glutathione): potentiated

[N]=O [NO, nitric oxide, reference compound]
inhibition of aerobic growth by NO ([2]; LB broth gassed with NO, absence of glutathione): no discernible inhibition
